Data set [1] in a line: Thermogravimetric analysis (TG) in the air. Format: physicochemical. As to conditions: for Decomp. Start.: Table 1.
Data set [2] in a line: Electron-emitting characteristics of device measured with measurement evaluation apparatus. As to conditions: Table 1. An excerpt: FIG. 4 is a schematic block diagram of an arrangement comprising a vacuum chamber that can be used as a measuring system for determining the performance of an electron-emitting device of the type under consideration.
Referring to FIG. 4, those components that are similar to or same as those of FIGS. 1A and 1B are denoted by the same reference symbols. The measuring system includes a vacuum chamber 45 and a vacuum pump 46. An electron-emitting device is placed in the vacuum chamber 45. The device comprises a substrate 1, a pair of device electrodes 2 and 3, an electroconductive thin film 4 and an electron-emitting region 5. Otherwise, the measuring system has a power source 41 for applying a device voltage Vf to the device, an ammeter 40 for metering the device current If running through the thin film 4 between the device electrodes 2 and 3, an anode 44 for capturing the emission current Ie produced by electrons emitted from the electron-emitting region of the device, a high voltage source 43 for applying a voltage to the anode 44 of the measuring system and another ammeter 42 for metering the emission current Ie produced by electrons emitted from the electron-emitting region 5 of the device. For determining the performance of the electron-emitting device, a voltage between 1 and 10 KV may be applied to the anode, which is spaced apart from the electron emitting device by distance H which is between 2 and 8 mm.
The electron-emitting characteristics of the electron-emitting device formed as described above were evaluated by using the measurement evaluation apparatus in FIG. 4. Note that, in this example, the distance between an anode and the electron-emitting device was set to be 4 mm, and the potential of the anode was set to be 1 kV. The degree of vacuum in the vacuum apparatus in measurement of the electron-emitting characteristics was 10^-8 torr.
The measurement evaluation apparatus described above was used, and a device voltage was applied across the electrodes 2 and 3 of the electron-emittingdevice. When a device current If and an emission current Ie flowing at this time were measured, current-voltage characteristics shown in FIG. 5 were obtained. In this device, the emission current Ie began to increase from a device voltage of about 6.3 V, and the device current If became 1.9 mA at the device voltage of 14 V. At this time, the emission current Ie of 0.7 μA was obtained.
The electron-emitting characteristics of the device manufactured as described above were measured. FIG. 4 is a schematic view showing the arrangement of a measurement evaluation apparatus. Reference numerals in FIG. 4 follow the reference numerals in the above examples. Note that, in this example, the distance between an anode and the electron-emitting device was set to be 4 mm, the potential of the anode was set to be 1 KV, and the degree of vacuum in a vacuum apparatus in measurement of the electron-emitting characteristics was set to be 10^-6 torr.
The measurement evaluation apparatus described above was used, and a device voltage was applied across the electrodes 2 and 3 of the electron-emittingdevice. When a device current If and an emission current Ie flowing at this time were measured, current-voltage characteristics shown in FIG. 5 were obtained. In the device in this example, the emission current Ie begun to sharply increase from a device voltage of about 8 V, the device current If and the emission current Ie respectively became 2.3 mA and 1.2 μA at the device voltage of 16 V, and electron-emitting efficiency .eta.=Ie/If (%) was 0.05%.
Note that, in this example, the distance between an anode and the electron-emitting device was set to be 4 mm, the potential of the anode was set to be 1 KV, and the degree of vacuum in a vacuum apparatus in measurement of the electron-emitting characteristics was set to be 10^-7 torr. […]

For data set [3] the following is noted: water.
The conditions of data set [4]: scanning type differential thermal analysis in the air.
For data set [5] the following is noted: X-ray diffraction.

With `CC(=O)[O-].CC(=O)[O-].CNCCO.CNCCO.[Ni+2]` [NANME, nickel acetate-bis(N-methylethanolamine)], the “temperature at which decomposition ended” value in data set [1] (TG in the air) is 379 °C.
As for `CC(=O)[O-].CC(=O)[O-].CC(C)(C)NCCO.CC(C)(C)NCCO.[Pd+2]` [Ex. 26], the “Decomp. Start.” value in data set [1] was 166 °C. In data set [2], the Ie came out at 1.0 mA, the Ie/If came to 0.040% and the If is 2.5 mA. This compound yielded a Solubility in data set [3] of 0.7 Pdwt %.
On the same counts, the results for `CC(=O)[O-].CC(=O)[O-].CNCCO.CNCCO.[Pd+2]` [Ex. 22] are 155 °C, 1.3 mA, 0.045%, 2.9 mA and 16.0 Pdwt %.
Turning to “palladium acetate-bis(N,N-dibutylethanolamine) [PADBE]”, the “temperature at which decomposition ended” value in data set [1] (TG in the air) amounted to 253 °C.
“palladium acetate-diethanolamine complex [PA-DE]”: in data set [1] (TG in the air), the decomposition start temperature is 100 °C, the sublimation properties result was “no sublimation properties” and the “temperature at which decomposition ended” value came to 305 °C.
As to `NCCO.NCCO.NCCO.O.O.O=C[O-].O=C[O-].[Ni+2]` [NFME, nickel formate-tris(ethanolamine)-2-hydrate], in data set [1] (TG in the air), the “temperature at which decomposition ended” value was determined as 403 °C.
For `CC(=O)[O-].CC(=O)[O-].NCCCCO.NCCCCO.NCCCCO.NCCCCO.[Pd+2]` [Ex. 20], the “Decomp. Start.” value in data set [1] stood at 186 °C. Moreover, in data set [2], the Ie/If is on record as 0.052% and the If was found to be 2.3 mA. In data set [3], this compound registered a Solubility of 10.5 Pdwt %.
In the case of `CC(=O)[O-].CC(=O)[O-].NCCO.NCCO.NCCO.NCCO.[Pd+2]` [PA-ME, palladium acetate-monoethanolamine complex], in data set [4], the decomposition temperature turned out to be 272 °C. The “crystallinity of dried thin film” value in data set [5] is listed as “non-crystallized”. In addition, in data set [1] (TG in the air), the decomposition start temperature is 100 °C, the sublimation properties entry is “no sublimation properties” and the “temperature at which decomposition ended” value came to 310 °C. In addition, the “residue weight at 350° C., in words” value in data set [1] (TG in the air, 350° C.) is given as “equal to a theoretical weight”.
For `CC(=O)[O-].CC(=O)[O-].CCCNCCO.CCCNCCO.[Pd+2]` [Ex. 24], the “Decomp. Start.” value in data set [1] is 154 °C. In data set [2], this compound showed an Ie of 1.0 mA, an Ie/If of 0.038% and an If of 2.6 mA. The Solubility in data set [3] was 4.0 Pdwt %.
For the compound “palladium acetate bis(dipropylamine) [reference compound]”, in data set [1] (TG in the atmosphere), the “palladium lost in thermal decomposition” value stood at 29%, the “weight reduction end temperature” value was 250 °C and the “weight reduction start temperature” value was 122 °C. In data set [1] (TG in the atmosphere, 350° C.), the “residue weight at 350° C. relative to theoretical weight” value turned out to be 71%.
`CC(=O)[O-].CC(=O)[O-].NCCCO.NCCCO.[Ni+2]` [NAMP, nickel acetate-bis(3-amino-propanol)]: the “temperature at which decomposition ended” value in data set [1] (TG in the air) is 393 °C.
Take `CC(=O)[O-].CC(=O)[O-].CC(C)NCCO.CC(C)NCCO.[Pd+2]` [Ex. 25]: in data set [1], the “Decomp. Start.” value was 155 °C. In data set [2], this compound gave an Ie of 1.1 mA, an Ie/If of 0.039% and an If of 2.8 mA. For the same compound, the Solubility in data set [3] is 3.7 Pdwt %.
On to `CC(=O)[O-].CC(=O)[O-].CC(O)CN.CC(O)CN.[Ni+2]` (centres unmarked) [NAMiP, nickel acetate-bis(1-amino-2-propanol)], for which the “temperature at which decomposition ended” value in data set [1] (TG in the air) was 406 °C.
As for “palladium acetate-di(N-butylethanolamine) [PABE]”, the “temperature at which decomposition ended” value in data set [1] (TG in the air) worked out at 245 °C.
Regarding “nickel acetate-bis(N-butylethanolamine) [NABE]”, in data set [1] (TG in the air), the “temperature at which decomposition ended” value came out at 395 °C.
`CC(=O)[O-].CC(=O)[O-].NCCCO.NCCCO.NCCCO.NCCCO.[Pd+2]` [Ex. 19]: the “Decomp. Start.” value in data set [1] was determined as 173 °C. In data set [2], this compound displayed an Ie of 1.1 mA, an Ie/If of 0.041% and an If of 2.7 mA.
As to `CC(=O)[O-].CC(=O)[O-].CCNCCO.CCNCCO.[Pd+2]` [Ex. 23], the “Decomp. Start.” value in data set [1] is 153 °C. In data set [2], this compound gave an Ie of 1.1 mA, an Ie/If of 0.042% and an If of 2.6 mA. This compound came in with a Solubility in data set [3] of 8.4 Pdwt %.

The values above are taken from patent US6270389A, “Method for forming an electron-emitting device using a metal-containing composition” (priority 1995, dated 2001).
